The results in this text go back to paper PMC11207040, “Synthesis and Biological Studies of New Temporin A Analogs Containing Unnatural Amino Acids in Position 7” (Pharmaceutics, 2024).

Type in all cases: cell-based
Common to all, as to conditions: broth dilution, 0 to 320 µg/mL, 24 h; NI = no inhibition monitored
Background: Dilution methods test growth across graded concentrations, often in twofold steps.

Experiment [1] concerns Pseudomonas aeruginosa NBIMCC 3700. The procedure: (§1) The parent peptide Temporin A and the novel analogs were subjected to tests against model strains Escherichia coli NBIMCC 8785, Bacillus subtilis NBIMCC 3562, Arthrobacter oxydans NBIMCC 9333, Pseudomonas aeruginosa NBIMCC 3700, and Candida albicans NBIMCC 74, for the assessment of their antimicrobial activity. The strains were acquired from the National Bank for Industrial Microorganisms and Cell Cultures (NBIMCC, Bulgaria). The strain E. coli 8785 was cultured in Luria-Bertani broth (LB, HiMedia, Mumbai, India); B. subtilis 3562—in nutrient broth (NB, HiMedia, Mumbai, India); A. oxydans 9333; P. aeruginosa 3700—in meat peptone agar (MPA) medium; and C. albicans 74—in yeast mold (YM) medium. An incubator shaker ES-20/60 (Biosan, Latvia) was used for the cultivation and was set to 30 °C for B. subtilis 3562, A. oxydans 9333, and C. albicans 74; and 37 °C for E. coli 8785 and P. aeruginosa 3700, with a 24 h shaking period at 120 rpm. The microbial cultures were then adjusted to a turbidity of 0.5 McFarland using a Grant-bio DEN-1B densitometer (Grant Instruments, Royston, UK) for further use.
(§2) The minimal inhibitory concentration (MIC) of the peptides was determined using the broth dilution method. Stock solutions of the peptides with a concentration of 10 mg/mL in 10% EtOH/H2O were prepared. Suspensions of the bacteria in the corresponding media were added to 96-well U-shaped bottom polystyrene plates (Deltalab S.L., Spain) and exposed to the peptide in the concentration range from 0 to 320 µg/mL, and a 10% EtOH/H2O control, diluted using the same scheme as the peptides, was also used. The plates were then incubated under aerobic conditions at the corresponding temperature for 24 h. The MIC (µg/mL) was assumed as the lowest concentration of the antimicrobial, where there was visible inhibition of the strain. The absorbance was measured at 630 nm (Microplate reader PKL PPC 142, Paramedical srl, Salerno, Italy). To determine the minimal bactericidal concentration (MBC) and minimal fungicidal concentration (MFC), 10 μL from concentrations greater than or equal to the MIC was placed on the corresponding solid nutrient medium. The Petri dishes were then incubated at 30 or 37 °C for 24 h. All experiments were conducted in a triplicate.

Experiment [2] relates to Candida albicans NBIMCC 74. As to the method:
as §1, §2

In experiment [3] the test system is Bacillus subtilis NBIMCC 3562. The procedure:
as §1, §2

For experiment [4], the system named is Arthrobacter oxydans NBIMCC 9333. As to the method: as §1, §2
The subject of experiment [5] is Escherichia coli NBIMCC 8785. As to the method:
as §1, §2

Structures are written as SMILES. In brackets after ≈: the same amount, converted by molar mass. Non-standard residues stand in square brackets, D forms with d. Residues, ends and D or L forms follow the SMILES beside them. Dab = NCC[C@H](N)C(=O)O

Regarding `CC[C@H](C)[C@H](NC(=O)CNC(=O)[C@H](CO)NC(=O)[C@H](CC(C)C)NC(=O)[C@@H](NC(=O)[C@H](CCCCN)NC(=O)CNC(=O)[C@@H](NC(=O)[C@H](CC(C)C)NC(=O)[C@@H]1CCCN1C(=O)[C@H](CC(C)C)NC(=O)[C@@H](N)Cc1ccccc1)[C@@H](C)CC)C(C)C)C(=O)N[C@@H](CC(C)C)C(N)=O` [DTF, FLPLIG-K-VLSGIL-NH2, reference compound] (H-FLPLIGKVLSGIL-NH2), the “MIC, P. aeruginosa 3700” value in experiment [1] is 160 µg/mL (≈ 117 µM). In addition, the “MIC, C. albicans 74” value in experiment [2] turned out to be 320 µg/mL (≈ 234 µM). For the same compound, the “MIC, B. subtilis 3562” value in experiment [3] was found to be 80 µg/mL (≈ 58.4 µM). Moreover, the “MIC, A. oxydans 9333” value in experiment [4] was 80 µg/mL (≈ 58.4 µM). Besides, in experiment [5], the “MIC, E. coli 8785” value came out at 320 µg/mL (≈ 234 µM).

As to `CC[C@H](C)[C@H](NC(=O)CNC(=O)[C@H](CO)NC(=O)[C@H](CC(C)C)NC(=O)[C@@H](NC(=O)[C@H](CCN)NC(=O)CNC(=O)[C@@H](NC(=O)[C@H](CC(C)C)NC(=O)[C@@H]1CCCN1C(=O)[C@H](CC(C)C)NC(=O)[C@@H](N)Cc1ccccc1)[C@@H](C)CC)C(C)C)C(=O)N[C@@H](CC(C)C)C(N)=O` [DTDab, FLPLIG-Dab-VLSGIL-NH2] (H-FLPLIG[Dab]VLSGIL-NH2; N-terminus assumed), the “MIC, P. aeruginosa 3700” value in experiment [1] was found to be 320 µg/mL (≈ 239 µM). The “MIC, B. subtilis 3562” value in experiment [3] is on record as 160 µg/mL (≈ 119 µM). In addition, the “MIC, A. oxydans 9333” value in experiment [4] turned out to be 320 µg/mL (≈ 239 µM). Further, the “MIC, E. coli 8785” value in experiment [5] turned out to be 320 µg/mL (≈ 239 µM).
